# Experiments:
# Format in all cases: in vivo
# rice (Oryza saliva) = assay: Test B flooded paddy test; settings: Rate 1000 g/ha, scale of 0 to 100 where 0 is no effect and 100 is complete control, visually evaluated after 13 to 15 days
# Method in brief: (§1)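 Greenhouse-held for 13 to 15 days after treatment at the 2-leaf stage, paddy-grown plants were scored visually against controls on a 0-to-100 control scale; a dash marks no test result.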
# [1] = system: smallflower flatsedge (Cyperus difformis); assay: Test B flooded paddy test; settings: Rate 1000 g/ha, scale of 0 to 100 where 0 is no effect and 100 is complete control, visually evaluated after 13 to 15 days
# Method in brief: as §1
# [2] = system: barnyardgrass (Echinochloa crus-galli); assay: Test B flooded paddy test; settings: Rate 1000 g/ha, scale of 0 to 100 where 0 is no effect and 100 is complete control, visually evaluated after 13 to 15 days
# Method in brief: as §1
# [3] = system: duck salad (Heteranthera limosa); assay: Test B flooded paddy test; settings: Rate 1000 g/ha, scale of 0 to 100 where 0 is no effect and 100 is complete control, visually evaluated after 13 to 15 days
# Method in brief: as §1
# [4] = system: canary grass (Phalaris minor); assay: Test C postemergence
# Method in brief: (§2)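 Pre- and postemergence treatments used a non-phytotoxic solvent/surfactant formulation; post-treated plants measured 2 to 18 cm. Greenhouse hold 12–14 d; % control estimated visually relative to controls.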
# [5] = system: windgrass (Apera spica-venti); assay: Test C postemergence
# Method in brief: as §2
# wild oat (Avena fatua) = assay: Test C postemergence
# Method in brief: as §2
# [6] = system: Italian ryegrass (Lolium multiflorum); assay: Test C postemergence
# Method in brief: as §2
# [7] = system: blackgrass (Alopecurus myosuroides); assay: Test C postemergence
# Method in brief: as §2
# [8] = system: green foxtail (Setaria viridis); assay: Test C postemergence
# Method in brief: as §2
# [9] = system: wheat (Triticum aestivum); assay: Test C postemergence
# Method in brief: as §2
# [10] = system: downy brome (Bromus tectorum); assay: Test C postemergence
# Method in brief: as §2
# [11] = system: winter barley (Hordeum vulgare); assay: Test C postemergence
# Method in brief: as §2
# [12] = Rate 125 g/ha, scale 0 to 100, 0 no effect, 100 complete control
# [13] = Rate 250 g/ha, scale 0 to 100 (0 no effect, 100 complete control)
# [14] = Rate 500 g/ha, scale 0 to 100 (0 no effect, 100 complete control)
structure (smiles),measurement,setting,value
CC(C)(C)c1ccn(C2CCN(c3cccc(C(F)(F)F)c3)C2=S)n1 (stereo not shown) [Compound 22],"Plant response rating, Rice",rice (Oryza saliva),90
same,"Plant response rating, Flatsedge",[1],100
same,"Plant response rating, Barnyardgrass",[2],100
same,"Plant response rating, Ducksalad",[3],100
COc1cc(N2CCC(n3ccc(C(C)(C)C)n3)C2=O)ccc1Cl (stereo not shown) [Compound 117],"Plant response rating, Canarygrass","[4]; Rate 62 g/ha, scale 0 to 100",0
same,"Plant response rating, Canarygrass",[4]; [12],0
same,"Plant response rating, Canarygrass",[4]; [13],20
same,"Plant response rating, Canarygrass",[4]; [14],20
same,"Plant response rating, Windgrass","[5]; Rate 62 g/ha, scale 0 to 100",20
same,"Plant response rating, Windgrass",[5]; [13],40
same,"Plant response rating, Windgrass",[5]; [14],60
same,"Plant response rating, Wild Oat","wild oat (Avena fatua); Rate 62 g/ha, scale 0 to 100",30
same,"Plant response rating, Wild Oat",wild oat (Avena fatua); [13],30
same,"Plant response rating, Wild Oat",wild oat (Avena fatua); [14],30
same,"Plant response rating, Ryegrass","[6]; Rate 62 g/ha, scale 0 to 100",10
same,"Plant response rating, Ryegrass",[6]; [13],30
same,"Plant response rating, Ryegrass",[6]; [14],60
same,"Plant response rating, Blackgrass","[7]; Rate 62 g/ha, scale 0 to 100",0
same,"Plant response rating, Blackgrass",[7]; [12],0
same,"Plant response rating, Blackgrass",[7]; [13],20
same,"Plant response rating, Blackgrass",[7]; [14],40
same,"Plant response rating, Foxtail, Green","[8]; Rate 62 g/ha, scale 0 to 100",10
same,"Plant response rating, Foxtail, Green",[8]; [13],30
same,"Plant response rating, Foxtail, Green",[8]; [14],50
same,"Plant response rating, Wheat","[9]; Rate 62 g/ha, scale 0 to 100",10
same,"Plant response rating, Wheat",[9]; [13],10
same,"Plant response rating, Wheat",[9]; [14],20
same,"Plant response rating, Downy Brome","[10]; Rate 62 g/ha, scale 0 to 100",20
same,"Plant response rating, Downy Brome",[10]; [12],40
same,"Plant response rating, Downy Brome",[10]; [14],40
same,"Plant response rating, Barley, Winter","[11]; Rate 62 g/ha, scale 0 to 100",0
same,"Plant response rating, Barley, Winter",[11]; [12],0
same,"Plant response rating, Barley, Winter",[11]; [14],20
Cc1cc(C)nc(N2CCC(n3ccc(C(C)(C)C)n3)C2=O)c1 (stereo not shown) [Compound 138],"Plant response rating, Rice",rice (Oryza saliva),90
same,"Plant response rating, Flatsedge",[1],90
same,"Plant response rating, Barnyardgrass",[2],100
same,"Plant response rating, Ducksalad",[3],90

# From patent US7138361B2, “Herbicidal heterocycles” (E. I. du Pont de Nemours and Company, priority 2000, dated 2006)
